{"source": "patent US8563779B2", "about": "“(4-trifluoromethyl-3-thiobenzoyl)cyclohexanediones and use thereof as herbicides” (Bayer CropScience AG, priority 2010, dated 2013)", "key": {"EPHHL": {"test_system": "EPHHL", "experiment": "Post-emergence herbicidal action against weed plants", "format": "in vivo, Euphorbia heterophylla", "conditions": "dose 12.5 g a.c./ha, scored after 3 to 4 weeks under glass", "experimental": "(§1) [table] 2. Post-emergence Herbicidal Action Against Weed Plants Seeds of monocotyledonous and dicotyledonous weed plants are set out in cardboard pots in sandy loam soil, covered with soil, and cultivated under glass under good growth conditions. Two to three weeks after sowing, the trial plants are treated at the three-leaf stage. The compounds according to the invention, formulated as wettable powders or as emulsifiable concentrates, are sprayed onto the surface of the green parts of the plants, at a water application rate of 600 to 800 l/ha (converted). After the trial plants have stood for 3 to 4 weeks under optimum growth conditions under glass, the action of the compounds according to the invention is scored in comparison to compounds disclosed in the prior art."}, "PHBPU [1]": {"test_system": "PHBPU", "experiment": "Post-emergence herbicidal action against weed plants", "format": "in vivo, Pharbitis purpureum", "conditions": "scored after 3 to 4 weeks under glass", "experimental": "as §1"}, "PHBPU [2]": {"test_system": "PHBPU", "experiment": "Pre-emergence herbicidal action against weed plants", "format": "in vivo, Pharbitis purpureum", "conditions": "dose 320 g a.c./ha, scored after 3 to 4 weeks under glass", "source_text": "(§2) Water-dispersible granules are also obtained by homogenizing and precomminuting, in a colloid mill, • 25 parts by weight of a compound of the formula (I), • 5 parts by weight of sodium 2,2′-dinaphthylmethane-6,6′-disulfonate, • 2 parts by weight of sodium oleoylmethyltaurinate, • 1 part by weight of polyvinyl alcohol, • 17 parts by weight of calcium carbonate and • 50 parts by weight of water, subsequently grinding the mixture in a bead mill and atomizing and drying the resulting suspension in a spray tower by means of a single-fluid nozzle. C. BIOLOGICAL EXAMPLES 1. Pre-emergence Herbicidal Action Against Weed Plants\n(§3) Seeds or rhizome sections of mono- and dicotyledonous weed plants are set out in pots of 9 to 13 cm in diameter, in sandy loam soil, and are covered with soil. The herbicides, formulated as emulsifiable concentrates or dusts, are applied to the surface of the covering earth in the form of aqueous dispersions or suspensions or emulsions, at a water application rate of 300 to 800 l/ha (converted). The pots are then maintained under glass under optimum conditions for the further cultivation of the plants. After 3 to 4 weeks under optimum growth conditions under glass, the trial plants are scored for the effect of the compounds according to the invention in comparison to compounds disclosed in the prior art."}, "PAPRH": {"test_system": "PAPRH", "experiment": "Post-emergence herbicidal action against weed plants", "format": "in vivo, Papaver rhoeas", "conditions": "dose 50 g a.c./ha, scored after 3 to 4 weeks under glass", "experimental": "as §1"}, "VIOTR": {"test_system": "VIOTR", "experiment": "Pre-emergence herbicidal action against weed plants", "format": "in vivo, Viola tricolor", "conditions": "dose 320 g a.c./ha, scored after 3 to 4 weeks under glass", "source_text": "as §2, §3"}, "ALOMY [3]": {"test_system": "ALOMY", "experiment": "Pre-emergence herbicidal action against weed plants", "format": "in vivo, Alopecurus myosuroides", "conditions": "dose 320 g a.c./ha, scored after 3 to 4 weeks under glass", "source_text": "as §2, §3"}, "MATIN": {"test_system": "MATIN", "experiment": "Post-emergence herbicidal action against weed plants", "format": "in vivo, Matricaria inodora", "conditions": "dose 50 g a.c./ha, scored after 3 to 4 weeks under glass", "experimental": "as §1"}, "CYPES": {"test_system": "CYPES", "experiment": "Pre-emergence herbicidal action against weed plants", "format": "in vivo, Cyperus serotinus", "conditions": "dose 320 g a.c./ha, scored after 3 to 4 weeks under glass", "source_text": "as §2, §3"}, "POLCO": {"test_system": "POLCO", "experiment": "Pre-emergence herbicidal action against weed plants", "format": "in vivo, Polygonum convolvulus", "conditions": "dose 320 g a.c./ha, scored after 3 to 4 weeks under glass", "source_text": "as §2, §3"}, "ALOMY [4]": {"test_system": "ALOMY", "experiment": "Post-emergence herbicidal action against weed plants", "format": "in vivo, Alopecurus myosuroides", "conditions": "dose 80 g a.c./ha, scored after 3 to 4 weeks under glass", "experimental": "as §1"}, "AMARE [5]": {"test_system": "AMARE", "experiment": "Pre-emergence herbicidal action against weed plants", "format": "in vivo", "conditions": "dose 320 g a.c./ha, scored after 3 to 4 weeks under glass", "source_text": "as §2, §3"}, "ABUTH": {"test_system": "ABUTH", "experiment": "Post-emergence herbicidal action against weed plants", "format": "in vivo, Abutilon theophrasti", "conditions": "dose 80 g a.c./ha, scored after 3 to 4 weeks under glass", "experimental": "as §1"}, "AMARE [6]": {"test_system": "AMARE", "experiment": "Post-emergence herbicidal action against weed plants", "format": "in vivo", "conditions": "dose 80 g a.c./ha, scored after 3 to 4 weeks under glass", "experimental": "as §1, with “2.” for “[table] 2.”"}, "LOLMU [7]": {"test_system": "LOLMU", "experiment": "Post-emergence herbicidal action against weed plants", "format": "in vivo, Lolium multiflorum", "conditions": "dose 80 g a.c./ha, scored after 3 to 4 weeks under glass", "experimental": "as §1"}, "LOLMU [8]": {"test_system": "LOLMU", "experiment": "Pre-emergence herbicidal action against weed plants", "format": "in vivo, Lolium multiflorum", "conditions": "dose 320 g a.c./ha, scored after 3 to 4 weeks under glass", "source_text": "as §2, §3"}}}
{"smiles": "Cc1c(C(=O)c2cnn(C)c2O)ccc(C(F)(F)F)c1S(C)(=O)=O", "values": [{"measurement": "Herbicidal action against EPHHL", "setting": "EPHHL", "result": 45, "unit": "%"}, {"measurement": "Herbicidal action against PHBPU", "setting": "PHBPU [1]; dose 12.5 g a.c./ha", "result": 50, "unit": "%"}]}
{"smiles": "Cc1c(C(=O)c2cnn(C)c2O)ccc(C(F)(F)F)c1[S+](C)[O-]", "note": "(stereo not shown)", "values": [{"measurement": "Herbicidal action against PHBPU", "setting": "PHBPU [2]", "result": 50, "unit": "%"}, {"measurement": "Herbicidal action against PAPRH", "setting": "PAPRH", "result": 55, "unit": "%"}, {"measurement": "Herbicidal action against VIOTR", "setting": "VIOTR", "result": 90, "unit": "%"}, {"measurement": "Herbicidal action against ALOMY", "setting": "ALOMY [3]", "result": 70, "unit": "%"}, {"measurement": "Herbicidal action against MATIN", "setting": "MATIN", "result": 74, "unit": "%"}]}
{"smiles": "CCn1ncc(C(=O)c2ccc(C(F)(F)F)c(S(C)(=O)=O)c2C)c1O", "values": [{"measurement": "Herbicidal action against CYPES", "setting": "CYPES", "result": 60, "unit": "%"}, {"measurement": "Herbicidal action against ALOMY", "setting": "ALOMY [3]", "result": 50, "unit": "%"}, {"measurement": "Herbicidal action against POLCO", "setting": "POLCO", "result": 60, "unit": "%"}]}
{"smiles": "CCn1ncc(C(=O)c2ccc(C(F)(F)F)c([S+](C)[O-])c2C)c1O", "note": "(stereo not shown)", "values": [{"measurement": "Herbicidal action against PHBPU", "setting": "PHBPU [2]", "result": 0, "unit": "%"}, {"measurement": "Herbicidal action against ALOMY", "setting": "ALOMY [4]", "result": 60, "unit": "%"}, {"measurement": "Herbicidal action against ALOMY", "setting": "ALOMY [3]", "result": 70, "unit": "%"}, {"measurement": "Herbicidal action against PHBPU", "setting": "PHBPU [1]; dose 80 g a.c./ha", "result": 80, "unit": "%"}]}
{"smiles": "Cc1nn(C)c(O)c1C(=O)c1ccc(C(F)(F)F)c(S(C)(=O)=O)c1C", "values": [{"measurement": "Herbicidal action against CYPES", "setting": "CYPES", "result": 50, "unit": "%"}, {"measurement": "Herbicidal action against AMARE", "setting": "AMARE [5]", "result": 90, "unit": "%"}, {"measurement": "Herbicidal action against ALOMY", "setting": "ALOMY [3]", "result": 50, "unit": "%"}]}
{"smiles": "Cc1nn(C)c(O)c1C(=O)c1ccc(C(F)(F)F)c([S+](C)[O-])c1C", "note": "(stereo not shown)", "values": [{"measurement": "Herbicidal action against ABUTH", "setting": "ABUTH", "result": 80, "unit": "%"}, {"measurement": "Herbicidal action against VIOTR", "setting": "VIOTR", "result": 40, "unit": "%"}, {"measurement": "Herbicidal action against AMARE", "setting": "AMARE [6]", "result": 50, "unit": "%"}, {"measurement": "Herbicidal action against LOLMU", "setting": "LOLMU [7]", "result": 30, "unit": "%"}, {"measurement": "Herbicidal action against ALOMY", "setting": "ALOMY [3]", "result": 60, "unit": "%"}, {"measurement": "Herbicidal action against LOLMU", "setting": "LOLMU [8]", "result": 60, "unit": "%"}]}
{"smiles": "Cc1c(C(=O)C2C(=O)C3CCC(C3)C2=O)ccc(C(F)(F)F)c1[S+](C)[O-]", "note": "(stereo not shown) [inventive compound No. 1-9]", "values": [{"measurement": "Herbicidal action against PHBPU", "setting": "PHBPU [2]", "result": 80, "unit": "%"}, {"measurement": "Herbicidal action against ABUTH", "setting": "ABUTH", "result": 100, "unit": "%"}, {"measurement": "Herbicidal action against PAPRH", "setting": "PAPRH", "result": 95, "unit": "%"}, {"measurement": "Herbicidal action against ALOMY", "setting": "ALOMY [4]", "result": 80, "unit": "%"}, {"measurement": "Herbicidal action against VIOTR", "setting": "VIOTR", "result": 100, "unit": "%"}, {"measurement": "Herbicidal action against AMARE", "setting": "AMARE [6]", "result": 90, "unit": "%"}, {"measurement": "Herbicidal action against LOLMU", "setting": "LOLMU [7]", "result": 80, "unit": "%"}, {"measurement": "Herbicidal action against ALOMY", "setting": "ALOMY [3]", "result": 100, "unit": "%"}, {"measurement": "Herbicidal action against LOLMU", "setting": "LOLMU [8]", "result": 90, "unit": "%"}, {"measurement": "Herbicidal action against PHBPU", "setting": "PHBPU [1]; dose 80 g a.c./ha", "result": 90, "unit": "%"}, {"measurement": "Herbicidal action against MATIN", "setting": "MATIN", "result": 95, "unit": "%"}]}
{"smiles": "Cc1c(C(=O)C2C(=O)C3CCC(C3)C2=O)ccc(C(F)(F)F)c1S(C)(=O)=O", "note": "(stereo not shown) [inventive compound No. 1-17]", "values": [{"measurement": "Herbicidal action against EPHHL", "setting": "EPHHL", "result": 85, "unit": "%"}, {"measurement": "Herbicidal action against CYPES", "setting": "CYPES", "result": 90, "unit": "%"}, {"measurement": "Herbicidal action against AMARE", "setting": "AMARE [5]", "result": 100, "unit": "%"}, {"measurement": "Herbicidal action against ALOMY", "setting": "ALOMY [3]", "result": 90, "unit": "%"}, {"measurement": "Herbicidal action against POLCO", "setting": "POLCO", "result": 100, "unit": "%"}, {"measurement": "Herbicidal action against PHBPU", "setting": "PHBPU [1]; dose 12.5 g a.c./ha", "result": 85, "unit": "%"}]}
